SMILES	glass transition temperature
*/C(=C(/*)c1ccc(Oc2ccccc2)cc1)c1ccccc1 (repeat unit)	200.00 °C
*/C(=C(\[2H])C([2H])([2H])C(*)([2H])[2H])C([2H])([2H])[2H] (repeat unit)	-58.00 °C
*C(=O)Nc1ccc(-c2ccc(NC(=O)c3ccc4c(c3)C(=O)N(c3ccc(Oc5cccc6c(N7C(=O)c8ccc(*)cc8C7=O)cccc56)cc3)C4=O)c(OC)c2)cc1OC (repeat unit)	304.00 °C
*C(=O)Nc1ccc(C2(c3ccc(N4C(=O)c5ccc(*)cc5C4=O)cc3)CC(C)CC(C)(C)C2)cc1 (repeat unit)	328.00 °C
*C(=O)Nc1ccc(C2(c3ccc(N4C(=O)c5ccc(*)cc5C4=O)cc3)CCC(C(C)(C)C)CC2)cc1 (repeat unit)	331.00 °C
*C(=O)Nc1ccc(C2(c3ccc(N4C(=O)c5ccc(*)cc5C4=O)cc3)CCC(C(C)(C)CC)CC2)cc1 (repeat unit)	342.00 °C
*C(=O)Nc1ccc(C2(c3ccc(N4C(=O)c5ccc(*)cc5C4=O)cc3)CCC(C)CC2)cc1 (repeat unit)	322.00 °C
*C(=O)Nc1ccc(C2(c3ccc(NC(=O)c4ccc5c(c4)C(=O)N(c4ccc(-c6ccc(N7C(=O)c8ccc(*)cc8C7=O)c(OC)c6)cc4OC)C5=O)cc3)c3ccccc3-c3ccccc32)cc1 (repeat unit)	181.00 °C
*C(=O)c1ccc2c(c1)C(=O)N(c1ccc(C3(C)CC(C)(C)c4ccc(N5C(=O)c6ccc(*)cc6C5=O)cc43)cc1)C2=O (repeat unit)	320.00 °C
*C(=O)c1ccc2c(c1)C(=O)N(c1ccc(N(c3ccc(C#N)cc3)c3ccc(N4C(=O)c5ccc(*)cc5C4=O)cc3)cc1)C2=O (repeat unit)	315.00 °C
*C(=O)c1ccc2c(c1)C(=O)N(c1cccc(C#Cc3cccc(N4C(=O)c5ccc(*)cc5C4=O)c3)c1)C2=O (repeat unit)	294.00 °C
*C(=O)c1ccc2c(c1)C(=O)N(c1cccc(C(c3cccc(N4C(=O)c5ccc(*)cc5C4=O)c3)(C(F)(F)F)C(F)(F)F)c1)C2=O (repeat unit)	239.00 °C
*C(=O)c1ccc2c(c1)C(=O)N(c1cccc(Cc3ccc(Cc4ccc(Cc5cccc(N6C(=O)c7ccc(*)cc7C6=O)c5)cc4)cc3)c1)C2=O (repeat unit)	235.50 °C
*C(=O)c1ccc2c(c1)C(=O)N(c1cccc(Nc3nc(Nc4cccc(N5C(=O)c6ccc(*)cc6C5=O)c4)nc(-c4ccccc4)n3)c1)C2=O (repeat unit)	292.00 °C
*C/C=C/c1cc(C(C)(C)c2ccc(O)c(/C=C/CC3CC(=O)N(c4ccc(Cc5ccc(N6C(=O)CC(*)C6=O)cc5)cc4)C3=O)c2)ccc1O (repeat unit)	206.00 °C
*CCCCCCCCCCCC(=O)Oc1ccc(C(C)(C)c2ccc(C(C)(C)c3ccc(OC(=O)c4ccc5c(c4)C(=O)N(*)C5=O)cc3)cc2)cc1 (repeat unit)	97.00 °C
*CCN(CCOC(=O)Nc1ccc(-c2ccc(NC(=O)O*)c(C)c2)cc1C)c1ccc(/N=N/c2ccc([N+](=O)[O-])cc2)cc1 (repeat unit)	119.50 °C
*Cc1ccc(C(C)c2ccc(Cn3c(=O)c4cc5c(=O)n(*)c(=O)c5cc4c3=O)o2)o1 (repeat unit)	116.00 °C
*Nc1ccc(-c2ccc(NC(=O)c3cccc(C(*)=O)c3)c(OC)c2)cc1OC (repeat unit)	218.20 °C
*Nc1ccc(C(C)(C)c2ccc(C(C)(C)c3ccc(Nc4ccc(C(=O)c5ccc(C(=O)c6ccc(*)cc6)cc5)cc4)cc3)cc2)cc1 (repeat unit)	157.00 °C
*Nc1ccc(C(C)(C)c2ccc(NC(=O)c3cc(C(*)=O)cc(N4C(=O)C=CC4=O)c3)cc2)cc1 (repeat unit)	303.00 °C
*Nc1ccc(C(C)(C)c2ccc(NC(=O)c3cc(NC(=O)c4ccccc4)cc(C(*)=O)c3)cc2)cc1 (repeat unit)	303.50 °C
*Nc1ccc(C(C)(C)c2ccc(NC(=O)c3cccc(C(*)=O)c3)cc2)cc1 (repeat unit)	279.00 °C
*Nc1ccc(Nc2ccc(C(O)(c3ccccc3)c3ccc(C(O)(c4ccccc4)c4ccc(*)cc4)cc3)cc2)cc1 (repeat unit)	200.00 °C
*OC(=O)Oc1ccc(C(C)(C)c2ccc(OC(=O)OC3CC4CC(*)CC(C3)O4)cc2)cc1 (repeat unit)	194.00 °C
*OP(=O)(Oc1ccc(NC(=O)Oc2ccc(C(C)(C)c3ccc(OC(=O)Nc4ccc(*)cc4)cc3)cc2)cc1)c1ccccc1 (repeat unit)	34.00 °C
*Oc1ccc(C(C)(C)c2ccc(OC(*)=O)c(Cl)c2)cc1C (repeat unit)	138.00 °C
*Oc1ccc(C(C)(C)c2ccc(OC(=O)OC3C(C)(C)C(OC(*)=O)C3(C)C)cc2)cc1 (repeat unit)	130.00 °C

SMILES	glass transition temperature
*Oc1ccc(C(C)(C)c2ccc(OC(=O)OCCCCOC(*)=O)cc2)cc1 (repeat unit)	56.50 °C
*Oc1ccc(C2(c3ccc(OC(=O)CCCCC(*)=O)cc3)c3cc(N(C)C)ccc3-c3ccc([N+](=O)[O-])cc32)cc1 (repeat unit)	150.00 °C
*Oc1ccc(C2(c3ccc(OC(=O)OC4C(C)(C)C(OC(*)=O)C4(C)C)cc3)CCC(C(C)(C)C)CC2)cc1 (repeat unit)	172.00 °C
*Oc1ccc2ccc(Oc3ccc(C(=O)Nc4ccc(C(C)(C)c5ccc(C(C)(C)c6ccc(NC(=O)c7ccc(*)cc7)cc6)cc5)cc4)cc3)cc2c1 (repeat unit)	155.00 °C
*c1cc(/C=N/C(=S)Nc2ccc(-n3c(=O)c4cc5c(=O)n(*)c(=O)c5cc4c3=O)cc2)ccc1Cl (repeat unit)	276.00 °C
*c1ccc(-c2cc(-c3ccc(OCCCC#N)cc3)cc(-c3ccc(N4C(=O)c5ccc(Oc6ccc7c(c6)C(=O)N(*)C7=O)cc5C4=O)cc3)n2)cc1 (repeat unit)	315.00 °C
*c1ccc(-c2cc(C(C)(C)C)c(Oc3ccc(N4C(=O)c5ccc(Oc6ccc7c(c6)C(=O)N(*)C7=O)cc5C4=O)cc3C(F)(F)F)c(C(C)(C)C)c2)cc1 (repeat unit)	353.00 °C
*c1ccc(-c2cc(C(C)(C)C)c(Oc3ccc(N4C(=O)c5ccc(S(=O)(=O)c6ccc7c(c6)C(=O)N(*)C7=O)cc5C4=O)cc3)c(C(C)(C)C)c2)cc1 (repeat unit)	354.50 °C
*c1ccc(-c2cc(C(C)(C)C)c(Oc3ccc(N4C(=O)c5ccc(S(=O)(=O)c6ccc7c(c6)C(=O)N(*)C7=O)cc5C4=O)cc3C(F)(F)F)c(C(C)(C)C)c2)cc1 (repeat unit)	365.50 °C
*c1ccc(-c2ccc(N3C(=O)c4ccc(-c5ccc6c(c5)C(=O)N(*)C6=O)cc4C3=O)c(C)c2)cc1C (repeat unit)	302.00 °C
*c1ccc(C(C)(C)c2ccc(C(C)(C)c3ccc(N4C(=O)c5ccc(Oc6cccc7c(Oc8ccc9c(c8)C(=O)N(*)C9=O)cccc67)cc5C4=O)cc3)cc2)cc1 (repeat unit)	253.00 °C
*c1ccc(C(C)(C)c2ccc(N3C(=O)c4ccc(Oc5ccc(Oc6ccc7c(c6)C(=O)N(*)C7=O)cc5)cc4C3=O)cc2)cc1 (repeat unit)	264.00 °C
*c1ccc(C(C)(C)c2ccc(N3C(=O)c4ccc(Oc5ccc6ccc(Oc7ccc8c(c7)C(=O)N(*)C8=O)cc6c5)cc4C3=O)cc2)cc1 (repeat unit)	247.00 °C
*c1ccc(C(C)(C)c2ccc(N3C(=O)c4ccc(Oc5cccc6c(Oc7ccc8c(c7)C(=O)N(*)C8=O)cccc56)cc4C3=O)cc2)cc1 (repeat unit)	265.00 °C
*c1ccc(C(c2ccc(C(=O)OC)cc2)c2ccc(N(*)c3ccc(C)cc3)cc2)cc1 (repeat unit)	222.00 °C
*c1ccc(N(c2ccc(C#N)cc2)c2ccc(N3C(=O)c4ccc(Oc5ccc(C6(c7ccc(Oc8ccc9c(c8)C(=O)N(*)C9=O)cc7)c7ccccc7-c7ccccc76)cc5)cc4C3=O)cc2)cc1 (repeat unit)	279.00 °C
*c1ccc(N[Se]Nc2ccc(S(*)(=O)=O)cc2)cc1 (repeat unit)	62.00 °C
*c1ccc(Nc2ccc(Nc3ccc(S(*)(=O)=O)cc3)cc2)cc1 (repeat unit)	145.00 °C
*c1ccc(Nc2cccc(Nc3ccc(S(*)(=O)=O)cc3)c2)cc1 (repeat unit)	145.00 °C
*c1ccc(OCCCCCCOc2ccc(C3C4C(=O)N(c5ccc(N6C(=O)C7ON(C)C(*)C7C6=O)cc5)C(=O)C4ON3C)cc2)cc1 (repeat unit)	52.00 °C
*c1ccc(Oc2ccc(-c3c(-c4ccccc4)c4c(c(-c5ccccc5)c3-c3ccccc3)C(=O)N(c3ccc(N5C(=O)c6c(c(-c7ccccc7)c(-c7ccccc7)c(*)c6-c6ccccc6)C5=O)cc3)C4=O)cc2)cc1 (repeat unit)	371.00 °C
*c1ccc2c(c1)C(=O)N(c1ccc(-c3ccc(N4C(=O)c5ccc(C(*)(C(F)(F)F)C(F)(F)F)cc5C4=O)c(C)c3)cc1C)C2=O (repeat unit)	352.00 °C
*c1ccc2c(c1)C(=O)N(c1ccc(-c3ccc(N4C(=O)c5ccc(C(*)(C(F)(F)F)C(F)(F)F)cc5C4=O)c(OC(=O)/C=C/c4ccccc4)c3)cc1OC(=O)/C=C/c1ccccc1)C2=O (repeat unit)	181.00 °C
*c1ccc2c(c1)C(=O)N(c1ccc(-c3ccc(N4C(=O)c5ccc(C(*)(C(F)(F)F)C(F)(F)F)cc5C4=O)c(OCCOc4ccc5c(C)cc(=O)oc5c4)c3)cc1OCCOc1ccc3c(C)cc(=O)oc3c1)C2=O (repeat unit)	132.00 °C
*c1ccc2c(c1)C(=O)N(c1ccc(C3(c4ccc(N5C(=O)c6ccc(C(*)(C(F)(F)F)C(F)(F)F)cc6C5=O)c(C(C)C)c4)c4ccccc4-c4ccccc43)cc1C(C)C)C2=O (repeat unit)	299.00 °C
*c1ccc2c(c1)C(=O)N(c1ccc(Oc3c(C(C)(C)C)cc(-c4ccc(N5C(=O)c6ccc(C(*)(C(F)(F)F)C(F)(F)F)cc6C5=O)cc4)cc3C(C)(C)C)c(C(F)(F)F)c1)C2=O (repeat unit)	362.50 °C
*c1ccc2c(c1)C(=O)N(c1ccc(Oc3c(C(C)(C)C)cc(-c4ccc(N5C(=O)c6ccc(C(*)(C(F)(F)F)C(F)(F)F)cc6C5=O)cc4)cc3C(C)(C)C)cc1)C2=O (repeat unit)	355.00 °C
